Results taken from patent publication US20220324815A1, “2-PHENOXY-PYRIMIDINE DERIVATIVES AS HERBICIDAL COMPOUNDS” (SYNGENTA CROP PROTECTION AG, priority 2019, published 2022).

Tests used:
Format in all cases: in vivo
Conditions in all cases: 250 g/ha unless otherwise stated, evaluated after 13 days, five-point scale
[1] = tested on: Amaranthus retoflexus (AMARE); assay: Test 1 glasshouse herbicide test, pre-emergence application (Table B2)
Procedure: (§1) Seeds of a variety of test species are sown in standard soil in pots (Lolium perenne (LOLPE), Solanum nigrum (SOLNI), Amaranthus retoflexus (AMARE), Setaria faberi (SETFA), Echinochloa crus-galli (ECHCG) and Ipomoea hederacea (IPOHE)). After cultivation for one day (pre-emergence) or after 8 days cultivation (post-emergence) under controlled conditions in a glasshouse (at 24/16° C., day/night; 14 hours light; 65% humidity), the plants are sprayed with an aqueous spray solution derived from the formulation of the technical active ingredient in acetone/water (50:50) solution containing 0.5% Tween 20 (polyoxyethelyene sorbitan monolaurate, CAS RN 9005-64-5). Compounds are applied at 250 g/ha unless otherwise stated. The test plants are then grown in a glasshouse under controlled conditions in a glasshouse (at 24/16° C., day/night; 14 hours light; 65% humidity) and watered twice daily. After 13 days for pre and post-emergence, the test is evaluated for the percentage damage caused to the plant. The biological activities (% phytotoxicity) are shown in Tables B1 and B2 below using a five-point scale (5=81 to 100%; 4=61 to 80%; 3=41 to 60%; 2=21 to 40%; 1=0 to 20%).

[2] = tested on: Echinochloa crus-galli (ECHCG); assay: as above
Procedure: as §1

[3] = tested on: Ipomoea hederacea (IPOHE); assay: as above
Procedure: as §1

Setaria faberi (SETFA) [4] = assay: as above
Procedure: as §1

[5] = tested on: Amaranthus retoflexus (AMARE); assay: Test 1 glasshouse herbicide test, post-emergence application (Table B1)
Procedure: as §1

[6] = tested on: Echinochloa crus-galli (ECHCG); assay: as above
Procedure: as §1

[7] = tested on: Ipomoea hederacea (IPOHE); assay: as above
Procedure: as §1

Setaria faberi (SETFA) [8] = assay: as above
Procedure: as §1

Row | SMILES | % phytotoxicity AMARE, pre-emergence application [1] | % phytotoxicity ECHCG, pre-emergence application [2] | % phytotoxicity IPOHE, pre-emergence application [3] | % phytotoxicity SETFA, pre-emergence application (Setaria faberi (SETFA) [4]) | % phytotoxicity AMARE, post-emergence application [5] | % phytotoxicity ECHCG, post-emergence application [6] | % phytotoxicity IPOHE, post-emergence application [7] | % phytotoxicity SETFA, post-emergence application (Setaria faberi (SETFA) [8])
1 | COCCCSc1ccccc1Oc1ncc(Cl)cn1 [Compound A56] | 2 (2=21 to 40%) | 1 (1=0 to 20%) | 2 (2=21 to 40%) | 2 (2=21 to 40%) | 2 (2=21 to 40%) | 1 (1=0 to 20%) | 1 (1=0 to 20%) | 1 (1=0 to 20%)
2 | Clc1cnc(Oc2ccccc2SCCn2cc(Cl)cn2)nc1 [Compound A57] | 4 (4=61 to 80%) | 3 (3=41 to 60%) | 1 (1=0 to 20%) | 4 (4=61 to 80%) | 5 (5=81 to 100%) | 4 (4=61 to 80%) | 2 (2=21 to 40%) | 4 (4=61 to 80%)
3 | FCCCSc1ccccc1Oc1ncc(Cl)cn1 [Compound A59] | 5 (5=81 to 100%) | 5 (5=81 to 100%) | 2 (2=21 to 40%) | 4 (4=61 to 80%) | 5 (5=81 to 100%) | 4 (4=61 to 80%) | 2 (2=21 to 40%) | 2 (2=21 to 40%)
4 | FCCSc1ccccc1Oc1ncc(Cl)cn1 [Compound A60] | 4 (4=61 to 80%) | 2 (2=21 to 40%) | 1 (1=0 to 20%) | 3 (3=41 to 60%) | 3 (3=41 to 60%) | 1 (1=0 to 20%) | 2 (2=21 to 40%) | 1 (1=0 to 20%)
5 | FC(F)CSc1ccccc1Oc1ncc(Cl)cn1 [Compound A61] | 5 (5=81 to 100%) | 3 (3=41 to 60%) | 2 (2=21 to 40%) | 4 (4=61 to 80%) | 5 (5=81 to 100%) | 2 (2=21 to 40%) | 2 (2=21 to 40%) | 2 (2=21 to 40%)
6 | C=C(C)CSc1ccccc1Oc1ncc(Cl)cn1 [Compound A62] | 1 (1=0 to 20%) | 3 (3=41 to 60%) | 1 (1=0 to 20%) | 3 (3=41 to 60%) | 1 (1=0 to 20%) | 4 (4=61 to 80%) | 1 (1=0 to 20%) | 3 (3=41 to 60%)
7 | CCC(CC)CSc1ccccc1Oc1ncc(Cl)cn1 [Compound A64] | 1 (1=0 to 20%) | 1 (1=0 to 20%) | 1 (1=0 to 20%) | 1 (1=0 to 20%) | 2 (2=21 to 40%) | 1 (1=0 to 20%) | 2 (2=21 to 40%) | 2 (2=21 to 40%)
8 | Clc1cnc(Oc2ccccc2SCc2cccc(Cl)c2)nc1 [Compound A66] | 1 (1=0 to 20%) | 2 (2=21 to 40%) | 1 (1=0 to 20%) | 2 (2=21 to 40%) | 4 (4=61 to 80%) | 4 (4=61 to 80%) | 2 (2=21 to 40%) | 3 (3=41 to 60%)
9 | FC(F)=C(F)CCSc1ccccc1Oc1ncc(Cl)cn1 [Compound A68] | 5 (5=81 to 100%) | 5 (5=81 to 100%) | 4 (4=61 to 80%) | 5 (5=81 to 100%) | 5 (5=81 to 100%) | 5 (5=81 to 100%) | 5 (5=81 to 100%) | 4 (4=61 to 80%)
10 | CC(C)CCSc1ccccc1Oc1ncc(Cl)cn1 [Compound A70] | 2 (2=21 to 40%) | 5 (5=81 to 100%) | 1 (1=0 to 20%) | 5 (5=81 to 100%) | 2 (2=21 to 40%) | 5 (5=81 to 100%) | 4 (4=61 to 80%) | 4 (4=61 to 80%)
11 | C=CCCSc1ccccc1Oc1ncc(Cl)cn1 [Compound A71] | 5 (5=81 to 100%) | 5 (5=81 to 100%) | 1 (1=0 to 20%) | 5 (5=81 to 100%) | 5 (5=81 to 100%) | 4 (4=61 to 80%) | 4 (4=61 to 80%) | 3 (3=41 to 60%)
12 | CC(C)CSc1ccccc1Oc1ncc(Cl)cn1 [Compound A72] | 4 (4=61 to 80%) | 4 (4=61 to 80%) | 1 (1=0 to 20%) | 4 (4=61 to 80%) | 3 (3=41 to 60%) | 3 (3=41 to 60%) | 2 (2=21 to 40%) | 2 (2=21 to 40%)
13 | O=S(=O)(CCC(F)=C(F)F)c1ccccc1Oc1ncc(Cl)cn1 [Compound A73] | 5 (5=81 to 100%) | 5 (5=81 to 100%) | 1 (1=0 to 20%) | 4 (4=61 to 80%) | 4 (4=61 to 80%) | 3 (3=41 to 60%) | 1 (1=0 to 20%) | 3 (3=41 to 60%)
14 | CC(C)CCS(=O)(=O)c1ccccc1Oc1ncc(Cl)cn1 [Compound A75] | 5 (5=81 to 100%) | 4 (4=61 to 80%) | 1 (1=0 to 20%) | 4 (4=61 to 80%) | 2 (2=21 to 40%) | 3 (3=41 to 60%) | 2 (2=21 to 40%) | 2 (2=21 to 40%)
